According to ChEMBL document CHEMBL3885861, “Open TG-GATES”:

Organism: Rattus norvegicus
Assay: Open TG-GATES - Regimen: Daily Repeat
Format: toxicity, organism-based, Sprague-Dawley
Design: regimen Daily Repeat, gender Male, age 6 weeks
Conditions: in vivo, po, 10 mg/kg, route gavage, dose level Low; for APTT / Bas / Eos / Fbg / Hb / Ht / Lym / MCH / MCHC / MCV / Mono / Neu / PT / Plat / RBC / Ret / WBC: tissue Blood; for KIDNEY_L / KIDNEY_R / KIDNEY_TOTAL: tissue Kidney; for LIVER: tissue Liver; for A/G / ALP / ALT / AST / BUN / CRE / Ca / Cl / DBIL / GLC / IP / K / LDH / Na / PL / RALB / TBIL / TC / TG / TP / gamma-GTP: tissue Plasma

Nc1ccc(Cc2ccc(N)cc2)cc1
TERMINAL_BW (72 h, time 3 day): 237.7 g | APTT (72 h, time 3 day): 13.9 s | Bas (72 h, time 3 day): 0.2% | Eos (72 h, time 3 day): 0.8% | Fbg (72 h, time 3 day): 280.2 mg/dL | Hb (72 h, time 3 day): 13.3 g/dL | Ht (72 h, time 3 day): 38.9% | Lym (72 h, time 3 day): 75% | MCH (72 h, time 3 day): 21.1 pg | MCHC (72 h, time 3 day): 34.2% | MCV (72 h, time 3 day): 61.5 fL | Mono (72 h, time 3 day): 2.4% | Neu (72 h, time 3 day): 20.8% | PT (72 h, time 3 day): 11.9 s | Plat (72 h, time 3 day): 149.6 x10_4/uL | RBC (72 h, time 3 day): 632.8 x10_4/ul | Ret (72 h, time 3 day): 5.9% | WBC (72 h, time 3 day): 114.1 x10_2/uL | KIDNEY_L (72 h, time 3 day): 1 g | KIDNEY_R (72 h, time 3 day): 1 g | KIDNEY_TOTAL (72 h, time 3 day): 1.9 g | LIVER (72 h, time 3 day): 11.4 g | A/G (72 h, time 3 day): 0.8 | ALP (72 h, time 3 day): 1752.4 IU/L | ALT (72 h, time 3 day): 41 IU/L | AST (72 h, time 3 day): 68.6 IU/L | BUN (72 h, time 3 day): 16.2 mg/dL | CRE (72 h, time 3 day): 0.2 mg/dL | Ca (72 h, time 3 day): 10.9 mg/dL | Cl (72 h, time 3 day): 106.6 meq/L | DBIL (72 h, time 3 day): 0.018 mg/dL | GLC (72 h, time 3 day): 181.4 mg/dL | IP (72 h, time 3 day): 7.7 mg/dL | K (72 h, time 3 day): 4.1 meq/L | LDH (72 h, time 3 day): 63 IU/L | Na (72 h, time 3 day): 143.6 meq/L | PL (72 h, time 3 day): 146.2 mg/dL | RALB (72 h, time 3 day): 2.7 g/dL | TBIL (72 h, time 3 day): 0.032 mg/dL | TC (72 h, time 3 day): 78.4 mg/dL | TG (72 h, time 3 day): 114.4 mg/dL | TP (72 h, time 3 day): 6 g/dL | gamma-GTP (72 h, time 3 day): 1 IU/L | TERMINAL_BW ([…], time 7 day): 279.3 g | TERMINAL_BW ([…], time 14 day): 335.7 g | TERMINAL_BW ([…], time 28 day): 440.9 g | APTT ([…], time 7 day): 13.6 s | Bas ([…], time 7 day): 0.2% | Eos ([…], time 7 day): 0.4% | Fbg ([…], time 7 day): 279.2 mg/dL | Hb ([…], time 7 day): 13.4 g/dL | Ht ([…], time 7 day): 39.2% | Lym ([…], time 7 day): 69.8% | MCH ([…], time 7 day): 20.6 pg | MCHC ([…], time 7 day): 34.1% | MCV ([…], time 7 day): 60.6 fL | Mono ([…], time 7 day): 2.8% | Neu ([…], time 7 day): 26.2% | PT ([…], time 7 day): 11.3 s | Plat ([…], time 7 day): 144.1 x10_4/uL | RBC ([…], time 7 day): 648 x10_4/ul | Ret ([…], time 7 day): 5.5% | WBC ([…], time 7 day): 107.7 x10_2/uL | APTT ([…], time 14 day): 15.6 s | Bas ([…], time 14 day): 0% | Eos ([…], time 14 day): 0.8% | Fbg ([…], time 14 day): 283.8 mg/dL | Hb ([…], time 14 day): 14.1 g/dL | Ht ([…], time 14 day): 40.9% | Lym ([…], time 14 day): 78% | MCH ([…], time 14 day): 20.6 pg | MCHC ([…], time 14 day): 34.6% | MCV ([…], time 14 day): 59.5 fL | Mono ([…], time 14 day): 1.8% | Neu ([…], time 14 day): 19% | PT ([…], time 14 day): 11.5 s | Plat ([…], time 14 day): 146.2 x10_4/uL | RBC ([…], time 14 day): 687 x10_4/ul | Ret ([…], time 14 day): 4.3% | WBC ([…], time 14 day): 125.5 x10_2/uL | APTT ([…], time 28 day): 16.1 s | Bas ([…], time 28 day): 0.2% | Eos ([…], time 28 day): 1% | Fbg ([…], time 28 day): 270.4 mg/dL | Hb ([…], time 28 day): 14.7 g/dL | Ht ([…], time 28 day): 41.8% | Lym ([…], time 28 day): 77.6% | MCH ([…], time 28 day): 19.6 pg | MCHC ([…], time 28 day): 35.1% | MCV ([…], time 28 day): 55.7 fL | Mono ([…], time 28 day): 1.4% | Neu ([…], time 28 day): 19.2% | PT ([…], time 28 day): 11.9 s | Plat ([…], time 28 day): 114.6 x10_4/uL | RBC ([…], time 28 day): 750.8 x10_4/ul | Ret ([…], time 28 day): 2.7% | WBC ([…], time 28 day): 114 x10_2/uL | KIDNEY_L ([…], time 7 day): 1.1 g | KIDNEY_R ([…], time 7 day): 1.1 g | KIDNEY_TOTAL ([…], time 7 day): 2.2 g | KIDNEY_L ([…], time 14 day): 1.2 g | KIDNEY_R ([…], time 14 day): 1.2 g | KIDNEY_TOTAL ([…], time 14 day): 2.3 g | KIDNEY_L ([…], time 28 day): 1.4 g | KIDNEY_R ([…], time 28 day): 1.4 g | KIDNEY_TOTAL ([…], time 28 day): 2.8 g | LIVER ([…], time 7 day): 13 g | LIVER ([…], time 14 day): 15.9 g | LIVER ([…], time 28 day): 17.9 g | A/G ([…], time 7 day): 0.8 | ALP ([…], time 7 day): 1642 IU/L | ALT ([…], time 7 day): 40.8 IU/L | AST ([…], time 7 day): 65 IU/L | BUN ([…], time 7 day): 16.8 mg/dL | CRE ([…], time 7 day): 0.2 mg/dL | Ca ([…], time 7 day): 11.4 mg/dL | Cl ([…], time 7 day): 104.6 meq/L | DBIL ([…], time 7 day): 0.026 mg/dL | GLC ([…], time 7 day): 182 mg/dL | IP ([…], time 7 day): 7.2 mg/dL | K ([…], time 7 day): 4.2 meq/L | LDH ([…], time 7 day): 60.6 IU/L | Na ([…], time 7 day): 143.6 meq/L | PL ([…], time 7 day): 143.8 mg/dL | RALB ([…], time 7 day): 2.7 g/dL | TBIL ([…], time 7 day): 0.07 mg/dL | TC ([…], time 7 day): 75.4 mg/dL | TG ([…], time 7 day): 105.6 mg/dL | TP ([…], time 7 day): 6 g/dL | gamma-GTP ([…], time 7 day): 1.4 IU/L | A/G ([…], time 14 day): 0.8 | ALP ([…], time 14 day): 1500.2 IU/L | ALT ([…], time 14 day): 38.8 IU/L | AST ([…], time 14 day): 64.6 IU/L | BUN ([…], time 14 day): 17 mg/dL | CRE ([…], time 14 day): 0.2 mg/dL | Ca ([…], time 14 day): 11.1 mg/dL | Cl ([…], time 14 day): 104.8 meq/L | DBIL ([…], time 14 day): 0.02 mg/dL | GLC ([…], time 14 day): 174.4 mg/dL | IP ([…], time 14 day): 7.1 mg/dL | K ([…], time 14 day): 3.8 meq/L | LDH ([…], time 14 day): 72.4 IU/L | Na ([…], time 14 day): 143.2 meq/L | PL ([…], time 14 day): 146.4 mg/dL | RALB ([…], time 14 day): 2.7 g/dL | TBIL ([…], time 14 day): 0.05 mg/dL | TC ([…], time 14 day): 70.4 mg/dL | TG ([…], time 14 day): 145 mg/dL | TP ([…], time 14 day): 6.2 g/dL | gamma-GTP ([…], time 14 day): 1 IU/L | A/G ([…], time 28 day): 0.8 | ALP ([…], time 28 day): 1150 IU/L | ALT ([…], time 28 day): 34.2 IU/L | AST ([…], time 28 day): 57.6 IU/L | BUN ([…], time 28 day): 16 mg/dL | CRE ([…], time 28 day): 0.2 mg/dL | Ca ([…], time 28 day): 10.9 mg/dL | Cl ([…], time 28 day): 105.4 meq/L | DBIL ([…], time 28 day): 0.02 mg/dL | GLC ([…], time 28 day): 177.6 mg/dL | IP ([…], time 28 day): 6.5 mg/dL | K ([…], time 28 day): 4 meq/L | LDH ([…], time 28 day): 64 IU/L | Na ([…], time 28 day): 144.4 meq/L | PL ([…], time 28 day): 133 mg/dL | RALB ([…], time 28 day): 2.7 g/dL | TBIL ([…], time 28 day): 0.056 mg/dL | TC ([…], time 28 day): 67 mg/dL | TG ([…], time 28 day): 112.4 mg/dL | TP ([…], time 28 day): 6.4 g/dL | gamma-GTP ([…], time 28 day): 1 IU/L
